The values that follow come from US4098823A, “Monospiroalkyl derivatives of prostaglandins” (Miles Laboratories, Inc., priority 1977, dated 1978).

Each structure is given as a SMILES string. “Also recorded” adds a separate entry of the source.

The subject of assay [1] is Human Platelet Aggregation. The conditions noted are these: in vitro; cited from earlier work.
Assay [2] has as its system smooth muscle of the vas deferens. The settings on record: mammalian male reproductive system; cited from earlier work.
Another assay has as its system adrenergic nerve endings. The settings on record: guinea pig; cited from earlier work.
In assay [3] the test system is steroidogenesis in the adrenal glands. The conditions noted are these: hypophysectomized rats; cited from earlier work.
Assay [4] relates to female reproductive system. The settings on record: in vivo; cited from earlier work.
Assay [5] deals with motor pathways in the central nervous system. The conditions noted are these: cited from earlier work.
In assay [6] the test system is Blood Pressure and Heart Rate. Nature of the assay: Effects on Blood Pressure and Heart Rate in the Anesthetized Cat. The class given is in vivo. The settings on record: intravenous, 0.01 to 10.0 mcg/kg, scored only on hypotension. The method, then: The acute effects of test compounds on blood pressure and heart rate were determined in cats of either sex anesthetized with a mixture of pentobarbital sodium (35 mg/kg, i.v.) and barbital sodium (100 mg/kg, i.v.). Cannulas were placed in the trachea to allow adequate spontaneous ventilation, in a femoral artery for blood pressure recording with a strain gage transducer, and in a saphenous vein for drug administration. Heart rate was recorded by means of a cardiotachometer driven by the R wave of the electrocardiogram. After a period of 10 minutes of stable recordings of blood pressure and heart rate, the test compound was administered intravenously at doses increasing from 0.01 to 10.0 mcg/kg, spaced one log and injected at 10 minutes intervals. All doses were injected in a volume of 0.1 ml/kg. Modifications of blood pressure and heart rate induced by the test compound were expressed both in absolute units (mmHg and beats/minutes) and as percent of values recorded immediately before administration of each dose. Biphasic responses were tabulated in the order in which they occur. The direction of the observed changes was also noted (+ for increases and - for decreases).
Activity of compounds in this test was judged only on the basis of the degree of hypotension observed. Thus, the ED50 mmHg (dose decreasing blood pressure by 50 mmHg) was calculated graphically and the compound scored according to the following scale: […]

A further assay concerns Guinea Pig Trachea. Briefly: Effects on the Guinea Pig Trachea in Vitro. The class given is cell-based. The settings on record: 0.01 to 10.0 mcg/ml, versus PGE1 0.1 mcg/ml, R = relaxation, C = contraction. As for the experimental part: A male guinea pig weighing 200-500 g was killed by a blow on the head. A 20 mm length of the trachea was dissected from the animal, transferred to a petri dish containing Krebs' solution (aerated with 95% O2 and 5% CO2 at 37° C), and cut longitudinally opposite the tracheal muscle. The tissue was then cut transversely three quarters of the distance across, a second cut in the opposite direction (again three quarters of the distance across the tissue) was made and the procedure was continued for the whole tissue. The ends of the trachea were pulled to form a zig-zag shaped strip. The tracheal strip used in the experiment was approximately 30 mm when extended under 0.25-0.5 g load in the tissue bath. Cotton thread was tied to one end of the tissue, and linen thread to the other. It was attached via the linen thread to a glass hook in a 5 ml isolated tissue bath containing Krebs' solution (37° C, aerated with a mixture of 95 % O2 and 5% CO2). […]
A test compound was then added to the same two strips at bath concentrations of 0.01, 0.1, 1.0, and 10.0 mcg/ml and the effects of the compound were recorded. […] The mean of the effects of the test compound on the two strips was then calculated for each concentration, and, based on the resulting values, an activity value was assigned as follows: […]

The test system of a further assay is rat stomach fundus. Briefly: Cascade Assay, stomach (smooth muscle stimulant effect). The class given is cell-based. The conditions noted are these: superfused, 50% of maximum (PGE1). In a few lines: (§1)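 Rabbit aortic strip (4 g tension), rat stomach fundus, rat colon and chick rectum (1 g) in cascade, superfused at 10 ml/min with 37° C Krebs containing cholinergic, adrenergic, serotonin and histamine blockers. Doses of 0.001–100,000 ng dripped on at 10–20 min intervals; maximal tension rise gave graphical ED50 per tissue.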

For another assay, the system named is chick rectum. Nature of the assay: Cascade Assay, rectum (smooth muscle stimulant effect). The conditions noted are these: superfused, 50% of maximum (PGE1). The class given is cell-based. In outline: as §1
For another assay, the system named is rabbit aortic strip. Briefly: Cascade Assay, aorta (smooth muscle stimulant effect). The conditions noted are these: superfused, 50% of maximum (PGA2). Type of assay: cell-based. In a few lines: as §1
The subject of the next assay is Gastric Secretion. Nature of the assay: Effects on Gastric Secretion in the Rat. The class given is in vivo. The settings on record: pylorus-ligated rat, subcutaneous, 2 x 1.5 mg/kg (total 3.0 mg/kg), 4 hours. In a few lines: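 Rats (150-200 g, groups of six) fasted 48 h, pylorus ligated under ether. Compounds given s.c. in phosphate buffer pH 7.38 at 1.5 mg/kg immediately post-surgery and 2 h later (total 3.0 mg/kg). At 4 h, gastric volume and total acid (titration with 0.1 N NaOH, mEq) compared with vehicle controls by t-test.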

Another assay deals with Rat Uterus. Nature of the assay: Effects on the Rat Uterus in Vitro. Type of assay: cell-based. The settings on record: Rattus norvegicus; in vitro, 29° C; response 50% that of carbachol; read-out: Test F Rat Uterus, Activity Value (ED50). In a few lines: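 Uterine segments came from rats (140–160 g) given 1 mg/kg diethylstilbestrol s.c. 18 h earlier. Tissue was held isometrically at 1 g tension in de Jalon solution at 29 °C, gassed with 95% O2/5% CO2. Compound was tested at 0.001–10 mcg/ml in log steps, every 10 min with washes, and ED50 was derived graphically as 50% of the second carbachol (1 mcg/ml) response.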

In a further assay the test system is rat colon. Nature of the assay: Cascade Assay, colon (smooth muscle stimulant effect). Type of assay: cell-based. The settings on record: superfused, 50% of maximum (PGF2α). In a few lines: as §1
The test system of assay [7] is Human Platelet Aggregation. Briefly: Inhibition of Human Platelet Aggregation. The class given is cell-based. The settings on record: in vitro. As for the experimental part: The ability of test compounds to inhibit platelet aggregation was determined by a modification of the turbidometric technique of Born (Nature, 194:927 [1962]). Blood was collected from human volunteers who had not ingested aspirin or aspirin-containing products within the preceding two weeks in heparinized containers and was allowed to settle for one (1) hour. The platelet rich plasma (prp) supernates were collected and cooled. Siliconized glassware was used throughout.
In a representative assay 1.9 ml of PRP and 0.2 ml of test compound at the appropriate concentrations (0.001 to 100 mcgm), or 0.2 ml of distilled water (control procedure) were placed in sample cuvettes. The cuvettes were placed in a 37° C incubation block for 15 minutes, and then in a spectrophotometer linked to a strip chart recorder. After 30-60 seconds, 0.2 ml of a solution, prepared by diluting a calf-skin collagen solution 1:9 with Tyrodes' Solution, was added to each cuvette. Platelet aggregation was evidenced by a decrease in optical density.
An ED50 value was then determined graphically.

Take `CCCCC[C@H](O)/C=C/[C@H]1[C@H](O)CC(=O)[C@@H]1CCCCCCC(=O)O` [PGE1, prostaglandin E1]: the “inhibition of aggregation of human platelets, in words (natural prostaglandin)” value in assay [1] is listed as “displays a similar activity”. Besides, the “contraction of smooth muscle of the vas deferens” value in [2] is “contracts the smooth muscle of the vas deferens”. For the same compound, in the assay with adrenergic nerve endings, the “transmitter release from adrenergic nerve endings” value is given as “inhibit transmitter release from adrenergic nerve endings”. For the same compound, the “steroidogenesis in the adrenal glands” value in assay [3] is on record as “stimulate steroidogenesis in the adrenal glands”.

Turning to `CCCCC[C@H](O)/C=C/[C@H]1[C@H](O)CC(=O)[C@@H]1C/C=C\CCCC(=O)O` [PGE2], the “effect in the female reproductive system (fertility, labor, abortion)” value in assay [4] was “potent oxytocic effects in inducing labor”. Moreover, the “transmitter release from adrenergic nerve endings” value with adrenergic nerve endings was “inhibit transmitter release from adrenergic nerve endings”. Also, the “steroidogenesis in the adrenal glands” value in assay [3] is “stimulate steroidogenesis in the adrenal glands”.

Regarding `CCCCC[C@H](O)/C=C/[C@@H]1[C@@H](C/C=C\CCCC(=O)O)[C@@H](O)C[C@H]1O` [PGF2α], the “transmission in motor pathways” value in [5] is given as “facilitates transmission in motor pathways”. For the same compound, the “effect in the female reproductive system (fertility, labor, abortion)” value in assay [4] is reported as “contragestational effects; also recorded: induces spontaneous abortions in early pregnancy”.

For `COC(=O)CCCCCC[C@H]1C(=O)C=C[C@H]1/C=C/[C@@H](O)C1CC2(CCC2)C1` [TR-4126, Methyl 7-{5-oxo-2R-[3S-hydroxy-3-(spiro[3.3]hept-2-yl)-1E-propenyl]cyclopent-3-en-1R-yl}heptanoate], the “Test D Activity Value (ED50 mmHg, decrease in blood pressure)” value in [6] is 0 (>10.0). Moreover, the “Test G Guinea Pig Trachea, Activity Value” in the assay with Guinea Pig Trachea is recorded as “Cl”. The “Test E Cascade Assay, Stomach, Activity Value (ED50)” value (from here on “Test E Cascade Assay, Stomach”) in the assay with rat stomach fundus was 0 (>10000). Also, the “Test E Cascade Assay, Rectum, Activity Value (ED50)” value (“Test E Cascade Assay, Rectum” below) with chick rectum is recorded as 0 (>10000). Moreover, the “Test E Cascade Assay, Aorta, Activity Value (ED50)” value (from here on “Test E Cascade Assay, Aorta”) in the assay on rabbit aortic strip is listed as 0 (>10000).

Turning to `O=C1C[C@@H](O)[C@H](/C=C/[C@@H](O)C2CC3(CCC3)C2)[C@H]1CCCCCCCO` [TR-4714, 7-{3R-hydroxy-5-oxo-2R-[3S-hydroxy-3-(spiro[3.3]hept-2-yl)-1E-propenyl]cyclopent-1R-yl}heptan-1-ol], in the assay on Gastric Secretion, the “Test B Activity Value (% decrease in acidity, inhibition of gastric secretion)” value is 0 (<26). Moreover, in the assay with Rat Uterus, the EC50 is > 10 µg/mL. In addition, the “Test G Guinea Pig Trachea, Activity Value” with Guinea Pig Trachea was “Cl”. Moreover, the “Test E Cascade Assay, Stomach” value in the assay on rat stomach fundus was 0 (>10000). Further, the “Test E Cascade Assay, Rectum” value with chick rectum was 0 (>10000). Also, in the assay on rabbit aortic strip, the “Test E Cascade Assay, Aorta” value was 0 (>10000). For the same compound, in the assay with rat colon, the “Test E Cascade Assay, Colon, Activity Value (ED50)” value is 0 (>10000).

Regarding `COC(=O)CCCCCC[C@H]1C(=O)C[C@@H](O)[C@@H]1/C=C/[C@@H](O)C1(C)CC2(CCC2)C1` [TR-4845, Methyl 7-{3R-hydroxy-5-oxo-2R-[3R-hydroxy-3-(2-methylspiro[3.3]hept-2-yl)-1E-propenyl]cyclopent-1R-yl}heptanoate], in the assay on Gastric Secretion, the “Test B Activity Value (% decrease in acidity, inhibition of gastric secretion)” value is 3 (51-75). The EC50 in the assay on Rat Uterus is > 10 µg/mL. In addition, the “inhibition of aggregation of human platelets, in words” value in [7] is on record as “inhibit aggregation of platelets”. In addition, the “Test E Cascade Assay, Stomach” value in the assay with rat stomach fundus is 0 (>10000). The “Test E Cascade Assay, Rectum” value in the assay with chick rectum is reported as 0 (>10000). Moreover, the “Test E Cascade Assay, Aorta” value in the assay with rabbit aortic strip is reported as 0 (>10000). Besides, in the assay with rat colon, the “Test E Cascade Assay, Colon, Activity Value (ED50)” value was 0 (>10000).
